# Results reported in US20230148005A1, “MACROCYCLIC COMPOUNDS AND USES THEREOF” (THESEUS PHARMACEUTICALS, INC., priority 2020, published 2023).
# Columns and labels:
# Ba/F3 EGFR-Del19/T790M = Ba/F3 EGFR-Del19/T790M (Homo sapiens, UniProt P00533, T790M, cells depend on it, form not given); test: Ba/F3 viability assay (CellTiter-Glo), DT; type: cell-based; conditions: anti-proliferation, read-out: BaF3 DT IC50
# Description: (§1) Inhibition of cell proliferation can be studied using Ba/F3 viability assays, including the Promega CellTiter-Glo cell viability assay. This assay can be used to study the effect of compounds described herein in the following assays: (1) Ba/F3 Parental; (2) Ba/F3 EGFR-Del19/T790M; (3); Ba/F3 EGFR-Del19/C797S; and (4) Ba/F3 EGFR-Del19/T790M/C797S.
# [1] = biological target: Ba/F3 EGFR-Del19/T790M/C797S (Homo sapiens, UniProt P00533, T790M/C797S, cells depend on it, form not given); test: Ba/F3 viability assay (CellTiter-Glo), DTC; type: cell-based; conditions: anti-proliferation, read-out: BaF3 DTC IC50
# Ba/F3 EGFR-Del19/T790M/C797S, sequence (P00533 with tags, fused parts or gaps DEL746-750/T790M/C797S, form open): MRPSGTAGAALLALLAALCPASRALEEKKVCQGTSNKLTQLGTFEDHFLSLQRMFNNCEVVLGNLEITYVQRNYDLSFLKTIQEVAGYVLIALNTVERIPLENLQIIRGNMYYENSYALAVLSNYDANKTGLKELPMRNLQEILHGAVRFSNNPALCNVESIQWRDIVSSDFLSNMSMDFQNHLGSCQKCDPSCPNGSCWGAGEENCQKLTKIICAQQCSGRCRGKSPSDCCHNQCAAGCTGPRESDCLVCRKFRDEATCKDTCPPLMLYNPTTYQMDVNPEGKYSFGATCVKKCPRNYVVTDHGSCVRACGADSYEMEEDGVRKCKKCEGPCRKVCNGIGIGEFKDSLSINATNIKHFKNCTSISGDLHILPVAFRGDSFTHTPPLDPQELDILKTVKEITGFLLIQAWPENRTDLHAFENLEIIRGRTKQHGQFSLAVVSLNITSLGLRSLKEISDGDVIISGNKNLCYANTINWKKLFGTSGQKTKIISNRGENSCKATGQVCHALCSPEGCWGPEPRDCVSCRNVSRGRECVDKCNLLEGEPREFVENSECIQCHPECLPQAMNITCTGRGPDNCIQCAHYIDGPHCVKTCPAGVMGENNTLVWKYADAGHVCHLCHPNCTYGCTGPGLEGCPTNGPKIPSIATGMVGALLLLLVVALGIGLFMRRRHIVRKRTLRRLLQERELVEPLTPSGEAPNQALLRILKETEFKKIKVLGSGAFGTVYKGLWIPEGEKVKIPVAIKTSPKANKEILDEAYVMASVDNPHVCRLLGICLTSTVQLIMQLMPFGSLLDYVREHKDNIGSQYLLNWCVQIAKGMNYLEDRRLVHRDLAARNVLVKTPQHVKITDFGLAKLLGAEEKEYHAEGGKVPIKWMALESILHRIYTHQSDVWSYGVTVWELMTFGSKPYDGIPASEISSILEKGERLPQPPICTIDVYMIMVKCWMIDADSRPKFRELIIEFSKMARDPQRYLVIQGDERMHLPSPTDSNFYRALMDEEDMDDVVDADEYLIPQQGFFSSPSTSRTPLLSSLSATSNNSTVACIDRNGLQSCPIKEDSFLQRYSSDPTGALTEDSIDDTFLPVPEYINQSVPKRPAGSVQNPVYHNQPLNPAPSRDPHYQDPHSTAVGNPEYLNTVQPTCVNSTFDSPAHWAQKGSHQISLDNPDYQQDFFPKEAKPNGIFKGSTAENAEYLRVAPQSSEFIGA
# Description: as §1
# Ba/F3 EGFR-Del19/C797S = Ba/F3 EGFR-Del19/C797S (Homo sapiens, UniProt P00533, C797S, cells depend on it, form not given); test: Ba/F3 viability assay (CellTiter-Glo), DC; type: cell-based; conditions: anti-proliferation, read-out: BaF3 DC IC50
# Ba/F3 EGFR-Del19/C797S, sequence (P00533 with tags, fused parts or gaps DEL746-750/C797S, form open): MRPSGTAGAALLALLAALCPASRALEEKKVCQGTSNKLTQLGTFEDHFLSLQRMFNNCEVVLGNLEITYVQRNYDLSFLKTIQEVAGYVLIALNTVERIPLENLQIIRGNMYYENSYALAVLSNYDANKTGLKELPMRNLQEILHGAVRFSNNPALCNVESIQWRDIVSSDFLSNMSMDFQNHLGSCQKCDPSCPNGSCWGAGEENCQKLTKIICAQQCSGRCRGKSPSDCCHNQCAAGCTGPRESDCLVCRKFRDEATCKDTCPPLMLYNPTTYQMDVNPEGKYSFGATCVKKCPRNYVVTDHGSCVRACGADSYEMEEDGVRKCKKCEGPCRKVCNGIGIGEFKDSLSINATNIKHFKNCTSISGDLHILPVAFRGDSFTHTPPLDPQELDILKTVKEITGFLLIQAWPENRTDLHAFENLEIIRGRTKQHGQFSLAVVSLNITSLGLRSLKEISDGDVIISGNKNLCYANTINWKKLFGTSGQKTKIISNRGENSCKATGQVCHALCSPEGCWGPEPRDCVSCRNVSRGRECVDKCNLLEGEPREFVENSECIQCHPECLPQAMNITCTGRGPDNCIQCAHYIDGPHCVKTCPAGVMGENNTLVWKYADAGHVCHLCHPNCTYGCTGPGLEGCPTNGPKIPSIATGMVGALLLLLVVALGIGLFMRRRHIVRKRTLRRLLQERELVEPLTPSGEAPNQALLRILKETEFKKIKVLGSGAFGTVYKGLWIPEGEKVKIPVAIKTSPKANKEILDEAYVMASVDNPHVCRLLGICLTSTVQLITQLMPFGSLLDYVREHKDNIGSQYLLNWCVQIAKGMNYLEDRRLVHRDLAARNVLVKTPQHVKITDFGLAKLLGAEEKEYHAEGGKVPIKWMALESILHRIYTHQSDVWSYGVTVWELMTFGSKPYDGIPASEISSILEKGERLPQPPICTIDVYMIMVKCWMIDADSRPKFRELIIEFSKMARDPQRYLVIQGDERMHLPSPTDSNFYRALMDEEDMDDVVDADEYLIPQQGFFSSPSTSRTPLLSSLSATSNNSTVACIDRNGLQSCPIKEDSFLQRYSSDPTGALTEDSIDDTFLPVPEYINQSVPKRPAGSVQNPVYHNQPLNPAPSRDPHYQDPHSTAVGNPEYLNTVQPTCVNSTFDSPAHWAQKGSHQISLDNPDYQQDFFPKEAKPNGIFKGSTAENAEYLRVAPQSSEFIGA
# Description: as §1
# EGFR^L58R/T790M = EGFR^L58R/T790M (Homo sapiens, UniProt P00533, L858R/T790M); test: in vitro kinase assay (HTRF KinEASE-TK kit), LT; type: biochemical; conditions: kinase inhibition
# Description: (§2) Assays using an in vitro kinase assay kit (HTRF KinEASE-TK kit) can be used to study the inhibitory activity of compounds described herein with respect to EGFR mutants such as EGFR^L858R, EGFR^L58R/T790M, and EGFR^L858R/T790M/C^797S.
# Ba/F3 Parental = test: Ba/F3 viability assay (CellTiter-Glo), parental; type: cell-based; conditions: Mus musculus, BaF3, anti-proliferation
# Description: as §1
# EGFR^L858R = EGFR^L858R (Homo sapiens, UniProt P00533, L858R); test: in vitro kinase assay (HTRF KinEASE-TK kit), L; type: biochemical; conditions: kinase inhibition
# Description: as §2
# EGFR^L858R/T790M/C^797S = EGFR^L858R/T790M/C^797S (Homo sapiens, UniProt P00533, C797S/L858R/T790M); test: in vitro kinase assay (HTRF KinEASE-TK kit), LTC; type: biochemical; conditions: kinase inhibition
# EGFR^L858R/T790M/C^797S, sequence (P00533 25-1210 T790M/C797S/L858R): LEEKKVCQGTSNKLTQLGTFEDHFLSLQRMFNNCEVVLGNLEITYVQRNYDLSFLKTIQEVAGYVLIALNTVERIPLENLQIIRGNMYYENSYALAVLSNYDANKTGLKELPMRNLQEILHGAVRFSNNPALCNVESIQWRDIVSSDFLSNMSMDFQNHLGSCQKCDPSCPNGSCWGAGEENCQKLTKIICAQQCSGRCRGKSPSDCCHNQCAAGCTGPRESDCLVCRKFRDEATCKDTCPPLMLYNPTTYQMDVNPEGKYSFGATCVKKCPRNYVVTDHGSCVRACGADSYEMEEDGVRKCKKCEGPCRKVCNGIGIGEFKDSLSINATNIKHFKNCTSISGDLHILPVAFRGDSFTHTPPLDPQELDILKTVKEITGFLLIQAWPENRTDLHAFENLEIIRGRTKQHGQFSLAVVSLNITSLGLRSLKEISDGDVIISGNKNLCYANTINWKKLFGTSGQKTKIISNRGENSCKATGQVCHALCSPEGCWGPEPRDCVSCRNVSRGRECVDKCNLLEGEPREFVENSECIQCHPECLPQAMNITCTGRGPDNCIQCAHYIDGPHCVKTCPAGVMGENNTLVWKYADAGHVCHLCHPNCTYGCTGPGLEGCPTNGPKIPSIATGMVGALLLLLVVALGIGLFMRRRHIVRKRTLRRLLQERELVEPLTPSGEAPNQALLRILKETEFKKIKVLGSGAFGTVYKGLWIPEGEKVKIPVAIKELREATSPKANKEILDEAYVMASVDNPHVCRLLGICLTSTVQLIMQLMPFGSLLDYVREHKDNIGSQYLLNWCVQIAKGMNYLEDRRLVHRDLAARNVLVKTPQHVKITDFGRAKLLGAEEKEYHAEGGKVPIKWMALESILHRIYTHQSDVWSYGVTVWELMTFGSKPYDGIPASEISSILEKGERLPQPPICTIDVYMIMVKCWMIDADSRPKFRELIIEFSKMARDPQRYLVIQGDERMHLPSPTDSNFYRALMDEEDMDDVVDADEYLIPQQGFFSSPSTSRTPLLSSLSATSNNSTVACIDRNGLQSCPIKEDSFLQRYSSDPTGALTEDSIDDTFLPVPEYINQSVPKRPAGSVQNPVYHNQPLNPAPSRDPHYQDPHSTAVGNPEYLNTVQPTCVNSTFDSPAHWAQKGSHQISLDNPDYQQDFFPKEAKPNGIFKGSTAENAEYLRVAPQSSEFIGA
# Description: as §2
# Ba/F3 EGFR-Del19/T790M, sequence (P00533 with tags, fused parts or gaps DEL746-750/T790M, form open): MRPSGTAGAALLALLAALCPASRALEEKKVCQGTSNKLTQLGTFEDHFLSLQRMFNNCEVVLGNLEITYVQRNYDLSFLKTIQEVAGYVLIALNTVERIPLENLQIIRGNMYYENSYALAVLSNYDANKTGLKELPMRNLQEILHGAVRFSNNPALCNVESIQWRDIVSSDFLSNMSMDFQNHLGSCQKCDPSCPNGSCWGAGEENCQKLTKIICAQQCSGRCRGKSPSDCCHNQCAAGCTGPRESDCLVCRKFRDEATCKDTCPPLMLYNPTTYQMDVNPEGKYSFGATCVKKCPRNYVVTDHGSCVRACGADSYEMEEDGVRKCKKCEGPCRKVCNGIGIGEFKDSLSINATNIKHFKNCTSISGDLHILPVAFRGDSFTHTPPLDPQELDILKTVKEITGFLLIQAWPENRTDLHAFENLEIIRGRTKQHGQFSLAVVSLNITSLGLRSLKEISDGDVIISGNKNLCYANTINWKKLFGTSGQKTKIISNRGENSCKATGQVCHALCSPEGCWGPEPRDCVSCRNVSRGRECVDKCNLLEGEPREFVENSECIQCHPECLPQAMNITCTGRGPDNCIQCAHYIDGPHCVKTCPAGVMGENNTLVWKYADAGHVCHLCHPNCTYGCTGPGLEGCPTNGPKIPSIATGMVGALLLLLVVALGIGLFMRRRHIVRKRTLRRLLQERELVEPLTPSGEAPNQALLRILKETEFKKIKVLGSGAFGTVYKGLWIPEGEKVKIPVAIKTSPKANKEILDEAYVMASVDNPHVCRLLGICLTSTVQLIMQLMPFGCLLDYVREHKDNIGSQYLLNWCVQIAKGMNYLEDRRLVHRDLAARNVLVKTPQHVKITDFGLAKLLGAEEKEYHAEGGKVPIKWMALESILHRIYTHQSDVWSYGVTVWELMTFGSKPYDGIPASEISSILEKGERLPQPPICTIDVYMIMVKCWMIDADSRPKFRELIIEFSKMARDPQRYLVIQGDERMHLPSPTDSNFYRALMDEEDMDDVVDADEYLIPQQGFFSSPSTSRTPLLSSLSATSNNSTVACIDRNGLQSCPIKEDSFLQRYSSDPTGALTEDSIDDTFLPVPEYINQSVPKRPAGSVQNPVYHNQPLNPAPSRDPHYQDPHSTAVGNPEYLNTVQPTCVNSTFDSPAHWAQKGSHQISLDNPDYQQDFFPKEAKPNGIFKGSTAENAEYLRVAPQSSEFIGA
Structure (SMILES),IC50 (EGFR^L58R/T790M) [nM],IC50 (EGFR^L858R) [nM],IC50 (EGFR^L858R/T790M/C^797S) [nM],GI50 (Ba/F3 EGFR-Del19/T790M) [nM],GI50 [1] [nM],GI50 (Ba/F3 EGFR-Del19/C797S) [nM],IC50 (Ba/F3 Parental) [nM]
C[C@H]1CCOc2c(cnn2C)-c2nccc(n2)Nc2cc3c(cn2)c(-c2cn(C)cn2)nn31 [(114)],< 10,10 to 100,< 10,10 to 100,10 to 100,10 to 100,100 to 1000
C[C@H]1CCOc2c(cnn2C)-c2nccc(n2)Nc2cc3c(cn2)c(-c2cnn(CCCN4CCOCC4)c2)nn31 [(115)],< 10,10 to 100,< 10,10 to 100,10 to 100,10 to 100,100 to 1000
C[C@H]1CCOc2c(cnn2C)-c2nccc(n2)Nc2cc3c(cn2)c(-c2cnn(CCN4CCOCC4)c2)nn31 [(116)],< 10,10 to 100,< 10,10 to 100,10 to 100,10 to 100,100 to 1000
CCN(CC)CCn1cc(-c2nn3c4cc(ncc24)Nc2ccnc(n2)-c2cnn(C)c2OCC[C@@H]3C)cn1 [(117)],< 10,< 10,< 10,< 10,< 10,10 to 100,10 to 100
CC(C)N1CCN(Cc2csc(-c3nn4c5cc(ncc35)Nc3ccnc(n3)-c3cnn(C)c3OCC[C@@H]4C)n2)CC1 [(118)],< 10,10 to 100,< 10,100 to 1000,10 to 100,100 to 1000,≥ 1000
C[C@H]1CCOc2c(cnn2C)-c2nccc(n2)Nc2cc3c(cn2)c(-c2ccc(CN4CCNCC4)n2C)nn31 [(119)],< 10,< 10,< 10,< 10,< 10,< 10,100 to 1000
C[C@H]1CCOc2c(cnn2C)-c2nccc(n2)Nc2cc3c(cn2)c(-c2ccc(CN4CCOCC4)n2C)nn31 [(120)],< 10,< 10,< 10,< 10,< 10,10 to 100,100 to 1000
C[C@H]1CCOc2c(cnn2C)-c2nccc(n2)Nc2cc3c(cn2)c(-c2ccc(CN4CCCCC4)n2C)nn31 [(121)],< 10,< 10,< 10,< 10,< 10,< 10,100 to 1000
CC(C)N1CCN(Cc2ccc(-c3nn4c5cc(ncc35)Nc3ccnc(n3)-c3cnn(C)c3OCC[C@@H]4C)n2C)CC1 [(122)],< 10,< 10,< 10,< 10,< 10,< 10,100 to 1000
C[C@H]1CCOc2c(cnn2C)-c2nccc(n2)Nc2cc3c(cn2)c(-c2ccc(CN4CCN(C5CC5)CC4)n2C)nn31 [(123)],< 10,< 10,< 10,< 10,< 10,< 10,100 to 1000

# The next lines start with results.
IC50 (EGFR^L58R/T790M) [nM],IC50 (EGFR^L858R) [nM],IC50 (EGFR^L858R/T790M/C^797S) [nM],Structure (SMILES),GI50 (Ba/F3 EGFR-Del19/T790M) [nM],GI50 [1] [nM],GI50 (Ba/F3 EGFR-Del19/C797S) [nM],IC50 (Ba/F3 Parental) [nM]
< 10,< 10,< 10,C[C@H]1CCOc2c(cnn2C)-c2nccc(n2)Nc2cc3c(cn2)c(-c2cccc(OCCN(C)C)c2)nn31 [(110)],< 10,< 10,< 10,100 to 1000
< 10,< 10,< 10,C[C@H]1CCOc2c(cnn2C)-c2nccc(n2)Nc2cc3c(cn2)c(-c2cccc(N4CCC(O)CC4)c2)nn31 [(111)],< 10,< 10,10 to 100,100 to 1000
< 10,< 10,< 10,C[C@H]1CCOc2c(cnn2C)-c2nccc(n2)Nc2cc3c(cn2)c(N2CC[C@@H](O)C2)nn31 [(112)],< 10,< 10,10 to 100,100 to 1000
< 10,< 10,< 10,C[C@H]1CCOc2c(cnn2C)-c2nccc(n2)Nc2cc3c(cn2)c(N2CC[C@H](O)C2)nn31 [(113)],< 10,< 10,< 10,100 to 1000
